Laboratory results published in patent publication US11078201B2, “Substituted isoindolin-1-ones and 2,3-dihydro-1H-pyrrol[3,4-c]pyridin-1-ones as HPK1 antagonists” (Nimbus Saturn, Inc., priority 2019, dated 2021).

Molecular target: HPK1 (Homo sapiens (Human), UniProt Q92918)
Test: HPK1 biochemical enzyme assay (microfluidic mobility shift assay)
Conditions: 1.5 nM HPK1, ATP 1 mM final, 60 min at RT, Caliper EZ Reader; read-out: HPK1 1000UMATP caliper IC50
Experimental: HPK1 biochemical enzyme assay: HPK1 enzyme inhibition was measured using a microfluidic mobility shift assay. […] Test compounds were titrated in ten point curves (top final assay concentration […]), and preincubated with enzyme/substrate mix for 30 min prior to initiation of the reaction by addition of ATP (1 mM final concentration) and substrate (1 μM final concentration; Carna Biosciences) diluted in assay buffer supplemented by MgCl2 (final assay concentration of 5 mM). Following 60 min incubation at RT, the reaction was terminated by addition of 60 µl/well termination buffer (Carna Biosciences) and signal determination using a Caliper EZ Reader (Perkin Elmer, UK).
The compound numbers correspond to the compound numbers in Table 1.

HPK1, sequence (Q92918 whole entry): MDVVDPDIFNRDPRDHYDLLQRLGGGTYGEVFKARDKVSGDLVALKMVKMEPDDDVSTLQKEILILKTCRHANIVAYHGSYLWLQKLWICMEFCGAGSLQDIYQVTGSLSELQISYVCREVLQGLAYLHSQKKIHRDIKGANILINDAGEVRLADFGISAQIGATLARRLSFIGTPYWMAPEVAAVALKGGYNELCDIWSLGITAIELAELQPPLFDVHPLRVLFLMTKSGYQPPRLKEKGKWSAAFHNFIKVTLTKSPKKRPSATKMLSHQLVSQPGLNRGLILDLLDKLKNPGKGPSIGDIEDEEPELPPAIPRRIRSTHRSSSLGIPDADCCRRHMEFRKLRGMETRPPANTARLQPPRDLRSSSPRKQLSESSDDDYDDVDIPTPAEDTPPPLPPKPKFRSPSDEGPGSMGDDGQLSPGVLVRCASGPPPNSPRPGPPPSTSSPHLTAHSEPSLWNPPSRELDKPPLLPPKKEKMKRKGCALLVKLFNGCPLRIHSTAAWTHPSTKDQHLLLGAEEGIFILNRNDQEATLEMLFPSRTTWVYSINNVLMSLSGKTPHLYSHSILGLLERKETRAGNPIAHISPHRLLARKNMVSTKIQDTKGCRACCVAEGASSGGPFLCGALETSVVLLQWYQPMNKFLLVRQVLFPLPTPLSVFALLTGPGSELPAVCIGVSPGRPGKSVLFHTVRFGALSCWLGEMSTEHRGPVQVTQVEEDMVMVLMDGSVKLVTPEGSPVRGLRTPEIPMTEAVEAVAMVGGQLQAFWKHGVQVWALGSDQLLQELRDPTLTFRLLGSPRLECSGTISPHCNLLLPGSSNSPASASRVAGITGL

Substance | IC50 [nM]
4-(8-fluoro-7- methyl-imidazo[1,2- a]pyridin-3- yl)-7-[[5- (morpholino- methyl)-2- pyridyl]amino] isoindolin-1-one [I-468] | < 100
4-[7-(hydroxymeth- yl)imidazo[1,2- a]pyridin-3- yl]-7-[(5- morpholino-2- pyridyl)amino] isoindolin-1-one [I-196] | < 100
